The record followed here is PubChem BioAssay AID588782 (Southern Research Specialized Biocontainment Screening …, 2011).

Active and inactive are the calls of the source.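 The calls were made as follows: active = virus-caused cell damage raised over twofold versus untreated cells in three repeats, without toxicity at overlapping doses; inactive = the rest.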

In this test the test system is PC3 cells, HSV G47-delta CPE, CellTiter-Glo, 96 h. Briefly: enhancers of oncolytic HSV cytopathic effect, confirmation, PC3 cells, CellTiter-Glo, secondary (AID 588782).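 As to CPE increase: percent rise in virus-caused cell damage over infected cultures given no drug.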 Conditions: for CPE increase / outcome: at 10 µM; for CPE increase: stronger effect = higher value; for CC50: measured here: PC3 cytotoxicity. Background: Cytopathic effects are the visible damage that an infection or toxin causes in cultured cells.

With `COc1cc(C(=O)NCCCN2CCCN(CCCNC(=O)c3cc(OC)c(OC)c(OC)c3)CC2)cc(OC)c1OC`, the CPE increase was 16% (inactive) and the CC50 (usually the concentration at which the toxic effect on the cells reaches its halfway point) was over 100 µM.
In the case of `COc1cc(NC(=O)N2CCCN(C(=O)Nc3cc(OC)c(OC)c(OC)c3)CC2)cc(OC)c1OC`, the CPE increase was 24.5% (inactive) and the CC50 is over 100 µM.
For `COc1ccc(C(=O)OCCCN2CCOCC2)cc1` the same measures were 16.9% (inactive) and over 100 µM.
As for `COc1cc(C(=O)OCCCN2CCCN(CCOC(=O)c3cc(OC)c(OC)c(OC)c3)CC2)cc(OC)c1OC`, the result was inactive and the CC50 is over 100 µM.
For `COc1cc(C(=O)OCCN2CCCN(C)CC2)cc(OC)c1OC` the same measures were “inactive” and over 100 µM.
For `COc1cc(C(=O)N2CCCN(C(=O)c3cc(OC)c(OC)c(OC)c3)CC2)cc(OC)c1OC`, in that order: “inactive” and over 100 µM.
